From patent US20080319065A1, “Systemic and Intrathecal Effects of a Novel Series of Phospholipase A2 Inhibitors on Hyperalgesia and Spinal Pge2 Release” (The Regents of the University of California, priority 2005, published 2008)

Legend:
[1] = system: murine RAW 264.7 macrophage-like cell line; experiment: Long-term LPS stimulation, PGE2 release; format: cell-based
Method: Several 2-oxoamides were tested in the long-term lipopolysaccharide (LPS) stimulation pathway in the murine RAW 264.7 macrophage-like cell line. (Raschke, et al., Cell, 1978, 15, 261-267). This pathway requires GIVA PLA2 activity and results in the extracellular release of many eicosanoid compounds including the prostaglandin PGE2. (Gijon, et al., leukoc. Biol., 1999, 65, 330-336). […] In the low μM range, AX041 and AX073 reduced PGE2 release by roughly 40% (FIG. 1(D)). At 1 μM and 5 μM concentrations, small activations were often seen. The in vitro and cellular results together are consistent with the known roles of GVIA PLA2 given that AX010, a selective GVIA inhibitor, had no cellular effect. […] Inhibitors selective for GIVA PLA2 or dual specificity inhibitors reduce PGE2 levels, also consistent with the known role of GIVA PLA2 in PGE2 production.

GVIA PLA2 = biological target: T1, GVIA PLA2 (Homo sapiens, UniProt O60733); experiment: Time dependence and reversibility of GVIA PLA2 inhibition; format: biochemical
T1 sequence (O60733 1-806): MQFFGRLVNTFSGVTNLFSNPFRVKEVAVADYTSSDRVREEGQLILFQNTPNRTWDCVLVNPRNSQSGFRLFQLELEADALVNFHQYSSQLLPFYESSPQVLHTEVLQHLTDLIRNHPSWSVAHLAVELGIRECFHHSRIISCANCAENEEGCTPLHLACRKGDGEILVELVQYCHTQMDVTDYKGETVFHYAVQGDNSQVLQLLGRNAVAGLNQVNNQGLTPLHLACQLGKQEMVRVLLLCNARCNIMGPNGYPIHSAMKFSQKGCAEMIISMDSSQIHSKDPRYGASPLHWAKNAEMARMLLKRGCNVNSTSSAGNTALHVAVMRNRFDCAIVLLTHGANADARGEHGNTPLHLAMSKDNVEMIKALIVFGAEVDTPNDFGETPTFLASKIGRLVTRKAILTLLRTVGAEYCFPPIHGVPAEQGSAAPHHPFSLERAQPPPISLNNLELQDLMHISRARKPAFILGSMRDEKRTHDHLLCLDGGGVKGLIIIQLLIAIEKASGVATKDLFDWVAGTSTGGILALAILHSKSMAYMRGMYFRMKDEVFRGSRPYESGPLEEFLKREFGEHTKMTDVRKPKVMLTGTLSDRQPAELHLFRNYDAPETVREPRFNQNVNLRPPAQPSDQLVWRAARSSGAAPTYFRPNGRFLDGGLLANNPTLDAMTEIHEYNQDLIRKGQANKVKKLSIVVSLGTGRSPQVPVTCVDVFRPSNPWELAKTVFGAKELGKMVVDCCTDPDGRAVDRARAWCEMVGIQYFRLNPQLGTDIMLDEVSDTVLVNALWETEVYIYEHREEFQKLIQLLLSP
Method: GVIA PLA2 (25 ng) was preincubated with either AX010 or AX0073 (5 μM) for 0, 5, 15 or 30 minutes and then assayed in the standard GVIA PLA2 assay mix containing 5 μM inhibitor. The final concentration of the inhibitors in the assay mix was 0.01 mole fraction, and the samples were incubated for 30 minutes at 40° C. […] In the latter respect, 25 ng of GVIA PLA2 was pre-incubated with 10 μM AX010 or AX073 for 10 minutes before diluting the enzyme 1:50 into the standard GVIA PLA2 assay mix lacking inhibitor, and incubating for 30 minutes at 40° C. The final inhibitor concentration in these assays was 0.0004 mole fraction, well below surface concentrations that either AX010 or AX073 inhibit the enzyme.

[2] = system: intrathecal SP evoked thermal hyperalgesia; experiment: Intrathecal substance P-induced thermal hyperalgesia; format: in vivo, rat; conditions: 3 mg/kg IP, 30 min before IT SP
Source text: Male Holtzman Sprague-Dawley rats (300-350 g; Harlan Industries) were individually housed and maintained on a 12-hr light/dark cycle with free access to food and water. For spinal drug injections, lumbar catheters were implanted in rats under isoflurane anesthesia according to a modification of the procedure described by Yaksh (Yaksh and Rudy, supra, 1976). A polyethylene catheter (PE-5; Spectranetics, 0.014 in OD) was inserted into the intrathecal space and advanced to the rostral edge of the lumbar enlargement through an incision in the atlanto-occipital membrane. Five days after implantation rats were entered into the study. […] A timer was actuated with the light source, and latency was defined as the time required for the paw to show a brisk withdrawal as detected by photodiode motion sensors that stop the timer and terminate the stimulus. Paw withdrawal latencies (PWL) were assessed prior to any treatment (control) and at intervals after treatment. Left (injured) and right (uninjured) paw withdrawal latencies were assessed and plotted versus time. In addition, difference latency scores (uninjured-injured) were calculated and the average withdrawal latency over the post-injection observation intervals are calculated for comparison between treatment groups. […] The mean PWL of the left and right paws was assessed at each time point. […]

Structure (SMILES) | inhibition of PGE2 release, in words [1] | reversibility of GVIA PLA2 inhibition (GVIA PLA2; pre-incubated with 10 μM for 10 minutes, diluted 1:50, final 0.0004 mole fraction) | time-dependent inhibition of GVIA PLA2 (GVIA PLA2; preincubated 0, 5, 15 or 30 minutes, 5 μM inhibitor, 0.01 mole fraction) | prevention of intrathecal SP-evoked thermal hyperalgesia [2] | melting point
CCC(=O)C(=O)NCCCC(=O)OC [AX010] | did not inhibit PGE2 release | freely reversible inhibitors | no increased potency with prolonged incubation |  | 
CCCCCCCCCCCCCCC(=O)C(=O)NCCCC(=O)OCC [AX048, Ethyl 4-[(2-oxohexadecanoyl)amino]butanoate] |  |  |  | completely prevented the spinally-evoked thermal hyperalgesia | 63 to 64 °C
